In patent publication US20080139664A1, “ANTI-GLYCATION AGENTS FOR PREVENTING AGE-, DIABETES-, AND SMOKING-RELATED COMPLICATIONS” (NATIONAL RESEARCH COUNCIL OF CANADA, priority 2001, published 2008):

Assays:
[1] = test system: human eye; details: topical administration of up to 20%; cited from earlier work
[2] = test system: bovine serum albumin (BSA); test: Fluorescamine assay of free primary amino groups of BSA incubated with D-ribose; type: biochemical; details: free primary amino group on BSA after 5 days at 37° C.; agent at 16.8 times IC50; 64% without agent
[3] = test system: bovine serum albumin (BSA); test: SDS-PAGE assessment of BSA-BSA protein cross-links; type: biochemical; details: mixtures further incubated for 4 weeks; note: key: ++: strongly suppressed; +: suppressed; −: no suppression; *: moderate acceleration of the cross-linking
Description: Additionally, protein cross-links were semi-quantitatively assessed by SDS PAGE gel chromatography.
Protein-protein cross-links were characterized by SDS-PAGE. The incubation mixtures used for determination of the amino groups were further incubated for 4 weeks. An aliquot of the solution was applied to Pharmacia SDS FAST gel and the proteins were stained with Coomassie blue.

[4] = test system: lysozyme; test: ESI-MS of lysozyme glycoforms after incubation with D-ribose; details: 37° C., 5 days; for Peak area as % of total area of all glycoforms, 14,569: lysozyme + 2D-ribose − 2H2O (14,569 Da); for Peak area as % of total area of all glycoforms, 14,551: lysozyme + 2D-ribose − 3H2O (14,551 Da); for Peak area as % of total area of all glycoforms, 14,533: lysozyme + 2D-ribose − 5H2O (14,533 Da); for Peak area as % of total area of all glycoforms, 14,515: lysozyme + 2D-ribose − 6H2O (14,515 Da); for Peak area as % of total area of all glycoforms, 14,419: lysozyme + D-ribose − 2H2O (14,419 Da); for Peak area as % of total area of all glycoforms, 14,401: lysozyme + D-ribose − 3H2O (14,401 Da); for Peak area as % of total area of all glycoforms, 14,437: lysozyme + D-ribose − H2O (14,437 Da); for Peak area as % of total area of all glycoforms, 14,496: lysozyme + D-ribose − H2O with one carboxymethylated Lys residue (14,496 Da); for Peak area as % of total area of all glycoforms, 14,364: lysozyme with one carboxymethylated Lys residue (14,364 Da); for Peak area as % of total area of all glycoforms, 14,305: unmodified lysozyme (14,305 Da);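 for all read-outs here: lysozyme incubated with D-ribose, with or without anti-glycation agents, then separated by reversed-phase HPLC and analysed by electrospray mass spectrometry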
[5] = test system: bovine serum albumin (BSA); test: Maillard fluorescence-based assay of AGEs formation, IC50 determination (BSA + D-ribose); details: inhibition of Maillard fluorescence development; 0.075 mM BSA, 50 mM D-ribose, 37° C., 5 days
Description: During the glycation reaction between proteins and reducing sugars, a specific fluorescence with excitation and emission wavelength of 370 nm and 440 nm, respectively, is observed. […] The assay was based on the progressive development of the characteristic Maillard fluorescence (370 nm Ex and 440 nm Em) during the progress of the glycation reaction.
The final assay volume was 200 μl and each assay well contained 0.075 mM BSA, and 50 mM D-ribose. Compounds were assayed at 3 different concentration levels (0.003, 0.03, and 0.3 mg/mL) to determine the effect of concentration on inhibition. Samples were incubated for 5 days.
The Maillard fluorescence was directly measured from the reaction solution, except for the anti-glycants that quenched the Maillard fluorescence, which were analyzed by the earlier-described HPLC method.
Solutions were incubated in microtitre plates (96 wells) at 37° C. for 5 days in a closed system.
After one hour incubation at 37° C., fluorescence readings were taken.
The IC50 values of the compounds that quenched the fluorescence of the glycated BSA were analyzed by on-line monitoring of the fluorescence of the glycated BSA separated from the fluorescence quenching assay compound by RP-HPLC. The elution profile was monitored by UV-diode array and by fluorescence (λex=370 nm, λem=440 nm). […] The incubation conditions were the same as above.

[6] = test system: dopaminergic neurons; details: cited from earlier work

In the case of `CC(C)NCC(O)c1ccc(O)c(O)c1.Cl` [D-isoproterenol hydrochloride], the “effect on intra-ocular pressure” value [1] is listed as “did not lower intra-ocular pressure”.
With `CCC(NC(C)C)C(O)c1ccc(O)c(O)c1` (centres unmarked) [Isoetharine] the Unreacted amino group [2] was 70%, the “Suppression of BSA-BSA cross-links” value [3] was “+” and the “Peak area as % of total area of all glycoforms, 14,569” value [4] was 1.6%. The “Peak area as % of total area of all glycoforms, 14,551” value [4] was 0.7%, the “Peak area as % of total area of all glycoforms, 14,533” value [4] was 0.9% and the “Peak area as % of total area of all glycoforms, 14,515” value [4] was 0.9%. The “Peak area as % of total area of all glycoforms, 14,419” value [4] was 1.6%, the “Peak area as % of total area of all glycoforms, 14,401” value [4] was 1.3% and the “Peak area as % of total area of all glycoforms, 14,437” value [4] was 14.3%. For the same molecule, the “Peak area as % of total area of all glycoforms, 14,496” value [4] was 1.4%, the “Peak area as % of total area of all glycoforms, 14,364” value [4] was 3.9% and the “Peak area as % of total area of all glycoforms, 14,305” value [4] was 73.4%. For the same molecule, the IC50 [5] was 25 µM.
In the case of `Cc1cc(-c2ccc(/N=N/c3c(S(=O)(=O)O)cc4cc(S(=O)(=O)O)cc(N)c4c3O)c(C)c2)ccc1/N=N/c1c(S(=O)(=O)O)cc2cc(S(=O)(=O)O)cc(N)c2c1O` [Trypan blue], the Unreacted amino group [2] is reported as 60%, the “Suppression of BSA-BSA cross-links” value [3] is reported as “+” and the “Peak area as % of total area of all glycoforms, 14,569” value [4] is reported as 4.6%. For the same molecule, the “Peak area as % of total area of all glycoforms, 14,551” value [4] was 3.4%, the “Peak area as % of total area of all glycoforms, 14,533” value [4] was 1.9% and the “Peak area as % of total area of all glycoforms, 14,515” value [4] was 1.6%. The “Peak area as % of total area of all glycoforms, 14,419” value [4] was 5.6%, the “Peak area as % of total area of all glycoforms, 14,401” value [4] was 3.0% and the “Peak area as % of total area of all glycoforms, 14,437” value [4] was 20.2%. The “Peak area as % of total area of all glycoforms, 14,496” value [4] was 2.1%, the “Peak area as % of total area of all glycoforms, 14,364” value [4] was 3.7% and the “Peak area as % of total area of all glycoforms, 14,305” value [4] was 49.8%. The IC50 [5] was 240 µM.
For `NC[C@H](O)c1ccc(O)c(O)c1` [noradrenaline], the EC50 ([6]; read-out: EC50, reduction of oxidative stress related to glycation) is given as roughly 0.3 µM and the “concentrations of intracellular reactive oxygen species” value ([6]; treatment with 1 μM) is given as “drastically reduced”.
